In paper PMC12300041, “Tricyclic Isatin Derivatives as Anti-Inflammatory Compounds with High Kinase Binding Affinity” (Molecules, 2025):
Read-outs that look alike come from different tables or passages of the source.

Key:
[1] = test system: NF-κB/AP-1 transcriptional activity; assay: LPS-induced NF-κB/AP-1 reporter (secreted alkaline phosphatase) in THP-1Blue cells; format: cell-based, human; conditions: 250 ng/mL LPS, N.A.: not active at the highest tested concentration (50 μM), read-out: AP Production (THP-1 Cells) IC50
Protocol: Human THP-1Blue monocytic cells stably transfected with a secreted embryonic alkaline phosphatase gene that is under control of a NF-κB/AP-1-inducible promoter were obtained from InvivoGen (San Diego, CA, USA). These cells were cultured in RPMI 1640 medium (Mediatech Inc., Herndon, VA, USA) containing 10% (v/v) fetal bovine serum (FBS), 100 μg/mL streptomycin, 100 U/mL penicillin, 100 μg/mL phleomycin (Zeocin), and 10 μg/mL blasticidin S (all from Sigma-Aldrich, St. Louis, MO, USA).
After incubation of THP-1Blue cells (2 × 10^5 cells/well) with test compounds or control DMSO (1% final concentration) for 30 min, 250 ng/mL of lipopolysaccharide (LPS; from Escherichia coli strain 0111:B4) was added, and the cells were incubated for 24 h. Secreted alkaline phosphatase activity was assessed in the cell supernatants using the QUANTI-Blue mix (InvivoGen; absorbance at 655 nm) and compared with positive controls treated with LPS alone. Compound concentrations that inhibited 50% of the NF-κB reporter activity (IC50) were determined.

IL-6 production = assay: LPS-induced IL-6 production in MonoMac-6 cells (ELISA); format: cell-based; conditions: Homo sapiens, MONO-MAC-6, 24 h, N.A.: not active at the highest tested concentration (50 μM)
Protocol: Human MonoMac-6 monocyte/macrophage cells (Deutsche Sammlung von Mikroorganismen und Zellkulturen GmbH, Braunschweig, Germany) were cultured in RPMI 1640 medium containing 10% (v/v) FBS, 10 μg/mL bovine insulin, 100 μg/mL streptomycin, and 100 U/mL penicillin.
An IL-6 ELISA kit (BD Biosciences, San Jose, CA, USA) was used to assess the effect of selected compounds on IL-6 production. MonoMac-6 cells were plated in 96-well plates at a density of 2 × 10^5 cells/well in culture medium supplemented with 3% (v/v) endotoxin-free FBS. Cells were pretreated with test compound or DMSO for 30 min, followed by addition of 200 ng/mL LPS for 24 h. For selected compounds, the IC50 for cytokine production was calculated by plotting percentage inhibition against the logarithm of inhibitor concentration (at least five points).

[2] = test system: proinflammatory cytokine production; assay: Multiplex human cytokine ELISA, LPS-stimulated MonoMac-6 cells; format: cell-based; conditions: 10 μM compound, 24 h, versus DMSO-treated control
Excerpt: A multiplex human cytokine ELISA kit from Anogen (Mississauga, ON, Canada) was used to evaluate various cytokines (IL-1α, IL-1β, IL-6, GM-CSF, MCP-1, IFN-γ, and TNF) in the supernatants of MonoMac-6 cells.

DAPK1 = target: T1, DAPK1 (Homo sapiens, UniProt P53355); assay: KINOMEscan; format: binding; conditions: for Kd: DAPK1, N.B.: no binding at concentrations up to 30 µM
T1 construct: purchased Eurofins Pharma Discovery (KINOMEscan)
T1 sequence (P53355 whole entry): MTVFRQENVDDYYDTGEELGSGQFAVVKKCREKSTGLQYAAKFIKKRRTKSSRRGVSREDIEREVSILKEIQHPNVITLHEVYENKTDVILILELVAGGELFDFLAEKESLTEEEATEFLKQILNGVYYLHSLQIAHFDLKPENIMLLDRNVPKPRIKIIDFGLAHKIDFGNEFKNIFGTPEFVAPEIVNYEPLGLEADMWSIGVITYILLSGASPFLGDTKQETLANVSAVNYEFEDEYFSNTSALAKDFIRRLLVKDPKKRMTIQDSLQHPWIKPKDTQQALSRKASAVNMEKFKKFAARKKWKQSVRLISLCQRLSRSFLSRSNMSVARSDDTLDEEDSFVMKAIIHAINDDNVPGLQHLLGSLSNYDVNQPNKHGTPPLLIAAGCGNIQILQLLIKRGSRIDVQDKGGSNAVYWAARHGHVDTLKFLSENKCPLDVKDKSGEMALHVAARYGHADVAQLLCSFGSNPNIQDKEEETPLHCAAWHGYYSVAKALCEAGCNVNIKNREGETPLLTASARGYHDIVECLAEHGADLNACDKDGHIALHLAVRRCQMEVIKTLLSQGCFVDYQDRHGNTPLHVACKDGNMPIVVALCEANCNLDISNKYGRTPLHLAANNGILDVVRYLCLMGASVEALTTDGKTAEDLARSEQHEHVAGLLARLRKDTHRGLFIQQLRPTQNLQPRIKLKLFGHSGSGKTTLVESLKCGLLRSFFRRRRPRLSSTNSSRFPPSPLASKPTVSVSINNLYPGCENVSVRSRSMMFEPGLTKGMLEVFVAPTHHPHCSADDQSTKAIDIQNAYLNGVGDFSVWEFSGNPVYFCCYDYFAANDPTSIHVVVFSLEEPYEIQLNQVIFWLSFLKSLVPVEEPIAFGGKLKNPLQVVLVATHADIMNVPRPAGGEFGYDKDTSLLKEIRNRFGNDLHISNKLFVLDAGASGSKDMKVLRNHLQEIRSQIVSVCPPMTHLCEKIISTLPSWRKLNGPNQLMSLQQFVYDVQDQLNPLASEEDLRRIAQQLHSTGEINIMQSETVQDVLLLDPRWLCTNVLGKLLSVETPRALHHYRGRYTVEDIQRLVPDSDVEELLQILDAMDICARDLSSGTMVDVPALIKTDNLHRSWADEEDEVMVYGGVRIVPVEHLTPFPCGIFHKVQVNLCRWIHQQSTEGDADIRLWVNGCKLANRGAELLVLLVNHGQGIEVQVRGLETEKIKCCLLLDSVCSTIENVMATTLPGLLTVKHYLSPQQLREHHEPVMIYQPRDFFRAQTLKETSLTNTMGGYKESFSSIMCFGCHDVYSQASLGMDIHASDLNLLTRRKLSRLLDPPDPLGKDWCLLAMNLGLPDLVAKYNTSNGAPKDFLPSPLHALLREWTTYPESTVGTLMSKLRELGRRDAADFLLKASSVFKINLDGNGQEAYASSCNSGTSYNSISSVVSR
Protocol: (§1) Kinase profiling was performed by KINOMEscan (Eurofins Pharma Discovery, San Diego, CA, USA), using a panel of 423 protein kinases, as described previously. Compounds were submitted for dissociation constant (Kd) determination toward several target kinases using KINOMEscan. […] Binding reactions were performed at room temperature for 1 h, and the fraction of kinase not bound to the test compound was determined by capture with an immobilized affinity ligand and quantified by quantitative polymerase chain reaction. The primary screening at fixed concentrations of the compound was performed in duplicate. For dissociation constant Kd determination, a 12-point half-log dilution series (a maximum concentration of 33 μM) was used.

DAPK2 = target: T2, DAPK2 (Homo sapiens, UniProt Q9UIK4); assay: KINOMEscan; format: binding; conditions: for Kd: DAPK2, N.B.: no binding at concentrations up to 30 µM
T2 construct: purchased Eurofins Pharma Discovery (KINOMEscan)
T2 sequence (Q9UIK4 whole entry): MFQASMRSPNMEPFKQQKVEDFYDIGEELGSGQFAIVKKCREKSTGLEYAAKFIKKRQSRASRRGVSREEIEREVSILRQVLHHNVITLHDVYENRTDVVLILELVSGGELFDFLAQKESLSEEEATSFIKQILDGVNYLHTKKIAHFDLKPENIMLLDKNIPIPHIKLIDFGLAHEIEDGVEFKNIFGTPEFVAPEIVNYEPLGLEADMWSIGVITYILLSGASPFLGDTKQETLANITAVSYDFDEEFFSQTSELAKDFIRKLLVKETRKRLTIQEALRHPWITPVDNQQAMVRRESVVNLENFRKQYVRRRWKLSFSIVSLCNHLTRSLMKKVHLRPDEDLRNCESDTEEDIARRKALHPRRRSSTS
Protocol: as §1

DAPK3 = target: T3, DAPK3 (Homo sapiens, UniProt O43293); assay: KINOMEscan; format: binding; conditions: for Kd: DAPK3, N.B.: no binding at concentrations up to 30 µM
T3 construct: purchased Eurofins Pharma Discovery (KINOMEscan)
T3 sequence (O43293 whole entry): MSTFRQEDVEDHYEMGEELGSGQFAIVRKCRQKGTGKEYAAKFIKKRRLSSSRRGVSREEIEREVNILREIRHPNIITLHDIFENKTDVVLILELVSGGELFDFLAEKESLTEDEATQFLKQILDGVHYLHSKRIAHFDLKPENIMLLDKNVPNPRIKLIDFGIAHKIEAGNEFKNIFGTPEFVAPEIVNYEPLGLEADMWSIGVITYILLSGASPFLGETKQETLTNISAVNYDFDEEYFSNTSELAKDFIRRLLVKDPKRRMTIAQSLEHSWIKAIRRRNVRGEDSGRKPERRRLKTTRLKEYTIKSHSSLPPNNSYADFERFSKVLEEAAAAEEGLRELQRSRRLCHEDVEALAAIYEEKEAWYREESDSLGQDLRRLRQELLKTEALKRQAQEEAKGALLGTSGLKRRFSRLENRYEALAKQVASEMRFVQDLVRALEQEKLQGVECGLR
Protocol: as §1

DYRK1B = target: T4, DYRK1B (Homo sapiens, UniProt Q9Y463); assay: KINOMEscan; format: binding
T4 construct: purchased Eurofins Pharma Discovery (KINOMEscan)
T4 sequence (Q9Y463 whole entry): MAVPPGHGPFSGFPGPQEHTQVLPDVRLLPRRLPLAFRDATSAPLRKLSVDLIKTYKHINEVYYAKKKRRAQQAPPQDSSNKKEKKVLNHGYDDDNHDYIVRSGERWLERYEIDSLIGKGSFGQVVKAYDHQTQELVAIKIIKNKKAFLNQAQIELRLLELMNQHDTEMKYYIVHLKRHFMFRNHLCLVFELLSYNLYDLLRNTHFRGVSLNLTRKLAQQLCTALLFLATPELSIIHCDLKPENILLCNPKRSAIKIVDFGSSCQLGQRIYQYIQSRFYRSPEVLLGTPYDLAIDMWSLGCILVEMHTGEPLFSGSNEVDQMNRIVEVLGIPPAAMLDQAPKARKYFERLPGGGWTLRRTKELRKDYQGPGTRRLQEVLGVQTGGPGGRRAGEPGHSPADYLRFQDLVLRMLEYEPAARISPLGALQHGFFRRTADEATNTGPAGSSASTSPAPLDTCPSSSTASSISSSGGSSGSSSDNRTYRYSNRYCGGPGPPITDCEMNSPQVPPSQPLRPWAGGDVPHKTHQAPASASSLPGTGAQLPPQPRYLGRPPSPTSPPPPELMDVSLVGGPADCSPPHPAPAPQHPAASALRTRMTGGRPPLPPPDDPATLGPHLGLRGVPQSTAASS
Protocol: as §1

HASPIN = target: T5, HASPIN (Homo sapiens, UniProt Q8TF76); assay: KINOMEscan; format: binding; conditions: for Kd: Haspin, N.B.: no binding at concentrations up to 30 µM
T5 construct: purchased Eurofins Pharma Discovery (KINOMEscan)
T5 sequence (Q8TF76 1-798): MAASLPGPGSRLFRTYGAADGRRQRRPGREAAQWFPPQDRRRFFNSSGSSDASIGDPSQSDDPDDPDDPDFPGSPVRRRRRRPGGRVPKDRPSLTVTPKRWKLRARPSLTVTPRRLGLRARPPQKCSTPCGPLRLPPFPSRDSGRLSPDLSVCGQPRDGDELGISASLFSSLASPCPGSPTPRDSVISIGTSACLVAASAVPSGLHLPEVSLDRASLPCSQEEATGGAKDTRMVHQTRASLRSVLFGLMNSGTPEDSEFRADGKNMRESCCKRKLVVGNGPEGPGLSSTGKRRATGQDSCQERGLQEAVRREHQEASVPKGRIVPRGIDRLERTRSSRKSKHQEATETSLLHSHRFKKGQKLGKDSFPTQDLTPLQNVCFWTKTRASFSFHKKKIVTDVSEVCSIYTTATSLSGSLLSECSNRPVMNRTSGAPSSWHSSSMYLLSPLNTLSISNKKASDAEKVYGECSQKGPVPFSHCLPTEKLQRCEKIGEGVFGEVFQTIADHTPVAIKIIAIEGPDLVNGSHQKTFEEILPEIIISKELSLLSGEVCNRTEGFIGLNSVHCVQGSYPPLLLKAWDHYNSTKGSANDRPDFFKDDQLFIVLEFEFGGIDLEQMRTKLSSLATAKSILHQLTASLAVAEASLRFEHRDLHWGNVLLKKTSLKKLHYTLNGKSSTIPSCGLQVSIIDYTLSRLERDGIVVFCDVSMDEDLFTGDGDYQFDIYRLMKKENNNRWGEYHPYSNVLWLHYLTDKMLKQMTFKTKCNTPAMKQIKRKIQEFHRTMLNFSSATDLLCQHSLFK
Protocol: as §1

HIPK2 = target: T6, HIPK2 (Homo sapiens, UniProt Q9H2X6); assay: KINOMEscan; format: binding; conditions: for Kd: HIPK2, N.B.: no binding at concentrations up to 30 µM
T6 construct: purchased Eurofins Pharma Discovery (KINOMEscan)
T6 sequence (Q9H2X6 whole entry): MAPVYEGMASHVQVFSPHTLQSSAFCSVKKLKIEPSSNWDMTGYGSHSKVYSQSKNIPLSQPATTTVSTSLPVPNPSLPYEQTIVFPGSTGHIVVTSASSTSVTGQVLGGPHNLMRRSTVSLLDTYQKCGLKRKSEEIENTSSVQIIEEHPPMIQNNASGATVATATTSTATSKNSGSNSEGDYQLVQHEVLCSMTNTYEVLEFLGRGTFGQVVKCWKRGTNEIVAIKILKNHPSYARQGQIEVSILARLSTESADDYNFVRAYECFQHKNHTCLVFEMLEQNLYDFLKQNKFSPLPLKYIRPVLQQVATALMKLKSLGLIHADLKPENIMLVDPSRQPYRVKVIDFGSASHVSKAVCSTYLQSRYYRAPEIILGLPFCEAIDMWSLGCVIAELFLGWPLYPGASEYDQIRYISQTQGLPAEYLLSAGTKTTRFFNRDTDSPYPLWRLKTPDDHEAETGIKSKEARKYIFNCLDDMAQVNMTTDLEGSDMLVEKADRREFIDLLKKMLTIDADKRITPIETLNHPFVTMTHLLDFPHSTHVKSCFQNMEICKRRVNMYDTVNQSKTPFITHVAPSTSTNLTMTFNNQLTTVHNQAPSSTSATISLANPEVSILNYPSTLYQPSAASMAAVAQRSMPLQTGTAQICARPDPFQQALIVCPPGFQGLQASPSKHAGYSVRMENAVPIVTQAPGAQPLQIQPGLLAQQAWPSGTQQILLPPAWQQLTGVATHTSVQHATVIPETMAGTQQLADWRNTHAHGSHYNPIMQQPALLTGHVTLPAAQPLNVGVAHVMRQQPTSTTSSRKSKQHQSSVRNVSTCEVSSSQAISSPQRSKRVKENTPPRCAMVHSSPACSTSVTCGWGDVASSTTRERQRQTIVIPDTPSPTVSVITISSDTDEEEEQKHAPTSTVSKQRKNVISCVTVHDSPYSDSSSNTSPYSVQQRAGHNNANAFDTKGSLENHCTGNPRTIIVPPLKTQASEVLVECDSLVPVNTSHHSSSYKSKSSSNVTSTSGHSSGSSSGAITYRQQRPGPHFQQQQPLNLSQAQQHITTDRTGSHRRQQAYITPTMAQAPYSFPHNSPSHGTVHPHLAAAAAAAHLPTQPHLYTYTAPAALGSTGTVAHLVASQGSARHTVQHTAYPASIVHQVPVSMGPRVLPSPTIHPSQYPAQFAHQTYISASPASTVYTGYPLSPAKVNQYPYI
Protocol: as §1

HIPK3 = target: T7, HIPK3 (Homo sapiens, UniProt Q9H422); assay: KINOMEscan; format: binding; conditions: for Kd: HIPK3, N.B.: no binding at concentrations up to 30 µM
T7 construct: purchased Eurofins Pharma Discovery (KINOMEscan)
Protocol: as §1

IRAK1 = target: T8, IRAK1 (Homo sapiens, UniProt P51617); assay: KINOMEscan; format: binding
T8 construct: purchased Eurofins Pharma Discovery (KINOMEscan)
T8 sequence (P51617 whole entry): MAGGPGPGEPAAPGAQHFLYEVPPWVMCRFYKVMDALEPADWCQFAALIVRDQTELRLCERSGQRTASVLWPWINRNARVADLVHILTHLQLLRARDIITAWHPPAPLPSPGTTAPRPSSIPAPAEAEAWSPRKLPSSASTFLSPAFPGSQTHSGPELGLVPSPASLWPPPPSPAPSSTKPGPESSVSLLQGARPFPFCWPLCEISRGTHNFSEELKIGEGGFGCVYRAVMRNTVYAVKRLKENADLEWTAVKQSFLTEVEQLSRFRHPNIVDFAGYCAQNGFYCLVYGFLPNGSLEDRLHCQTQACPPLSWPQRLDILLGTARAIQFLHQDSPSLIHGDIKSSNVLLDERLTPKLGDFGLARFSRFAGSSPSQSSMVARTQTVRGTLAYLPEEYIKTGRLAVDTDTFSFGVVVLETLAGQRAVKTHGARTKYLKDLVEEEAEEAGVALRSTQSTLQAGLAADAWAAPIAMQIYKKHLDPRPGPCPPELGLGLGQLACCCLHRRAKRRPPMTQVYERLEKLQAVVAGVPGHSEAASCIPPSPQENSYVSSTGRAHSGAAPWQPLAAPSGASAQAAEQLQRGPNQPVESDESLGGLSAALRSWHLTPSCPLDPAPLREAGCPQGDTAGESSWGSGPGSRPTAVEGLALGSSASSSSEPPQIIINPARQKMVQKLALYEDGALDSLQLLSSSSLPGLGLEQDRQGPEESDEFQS
Protocol: as §1

[3] = DYRK1B, N.B.: no binding at concentrations up to 30 µM
[4] = IRAK1, N.B.: no binding at concentrations up to 30 µM

Row | Compound | IC50 ([1]; 24 h) | IC50 ([1]; Homo sapiens, THP-1, 24 h) | IC50 (IL-6 production) | inhibition of secretion of IL-1α, IL-1β, IL-6, TNF and MCP-1 [2] | Kd (DAPK1) | Kd (DAPK2) | Kd (DAPK3) | Kd (HASPIN) | Kd (HIPK2) | Kd (HIPK3) | further results
1 | O=C1Nc2c(cc([N+](=O)[O-])c3c2CCCC3)C1=NO [Compound 5d, 3-(Hydroxyimino)-5-nitro-1,3,6,7,8,9-hexahydro-2H-benzo[g]indol-2-one] | 5.5 ± 1.4 µM | < 6.1 µM | 12.6 ± 3.2 µM | inhibited | 0.29 ± 0.02 µM | 0.2 ± 0.042 µM | 0.59 ± 0.028 µM | 0.165 ± 0.021 µM | 0.295 ± 0.092 µM | 0.135 ± 0.07 µM | inhibition at 10 µM (DAPK1; 10 μM): 96.3%; inhibition at 10 µM (DAPK2; 10 μM): 98.9%; inhibition at 10 µM (DAPK3; 10 μM): 98.5%; inhibition at 10 µM (DYRK1B; 10 μM): 96.4%; Kd (DYRK1B; [3]): 0.47 ± 0.02 µM; inhibition at 10 µM (HASPIN; 10 μM): 99.5%; inhibition at 10 µM (HIPK2; 10 μM): 99.7%; inhibition at 10 µM (HIPK3; 10 μM): 100%; inhibition at 10 µM (IRAK1; 10 μM): 99.2%; Kd (IRAK1; [4]): 0.67 ± 0.113 µM
2 | O=C1Nc2c(ccc3c2CCCC3)C1=NO [Compound 5a, 3-(Hydroxyimino)-1,3,6,7,8,9-hexahydro-2H-benzo[g]indol-2-one] | 6 ± 1.3 µM | < 6.1 µM | 48.3 ± 4.4 µM | less effective | 13.5 ± 0.7 µM | 7.7 ± 1.1 µM | 20.5 ± 3.5 µM | 0.61 ± 0.08 µM | 0.73 ± 0.64 µM | 1.3 ± 0.3 µM | Kd (µM) (DYRK1B; [3]): N.B.; Kd (µM) (IRAK1; [4]): N.B.
